The supplement of paper PMC10307832

Legend:
Experiment in all cases: relative viability (nuclei count vs DMSO), 5 days (fraction); higher = more cells survive
[1] = system: NCI-H441
Method in brief: (§1)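 For relative viability, nuclei counts in treated wells were divided by those in vehicle wells. Lung cancer cell lines had been pin-tool dosed in 1536-well plates the day after seeding and cultured for 5 days, then fixed and stained in one step (final 0.05% Triton X-100, 1% formaldehyde, 1 ug/ml Hoechst) and imaged at 4×. Doses were one drug alone or a fixed anchor-drug dose plus five library-drug doses (not always all listed) in √10 steps, and values are duplicate-plate medians.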

[2] = system: NCI-H358
Method in brief: as §1

[3] = system: SW 1573
Method in brief: as §1

[4] = system: LC-2-ad
Method in brief: as §1

[5] = system: NCI-H1734
Method in brief: as §1

[6] = system: NCI-H838
Method in brief: as §1

[7] = system: EPLC-272H
Method in brief: as §1

[8] = system: ABC-1
Method in brief: as §1

[9] = system: NCI-H647
Method in brief: as §1

[10] = system: NCI-H1915
Method in brief: as §1

[11] = system: HCC-15
Method in brief: as §1

[12] = system: UMC-11
Method in brief: as §1

[13] = system: NCI-H2009
Method in brief: as §1

[14] = system: A-427
Method in brief: as §1

[15] = system: NCI-H322M
Method in brief: as §1

[16] = system: NCI-H2023
Method in brief: as §1

[17] = system: NCI-H2347
Method in brief: as §1

[18] = system: NCI-H1944
Method in brief: as §1

[19] = system: RERF-LC-KJ
Method in brief: as §1

[20] = system: LK-2
Method in brief: as §1

For `Cc1csc(=NC2CCCCC2)n1/N=C/c1ccc(O)c(O)c1O` [MIM1] + C[C@@H](Oc1cc(-c2cnn(C3CCNCC3)c2)cnc1N)c1c(Cl)ccc(F)c1Cl [Crizotinib] (partner 1 µM), the relative viability ([1]; first compound 0.2 µM) was 0.835, the relative viability ([1]; first compound 0.6325 µM) was 0.692 and the relative viability ([1]; first compound 2 µM) was 0.774. The relative viability ([1]; first compound 6.325 µM) was 0.433, the relative viability ([1]; first compound 20 µM) was 0.222 and the relative viability ([2]; first compound 0.2 µM) was 0.572. The relative viability ([2]; first compound 0.6325 µM) was 0.459, the relative viability ([2]; first compound 2 µM) was 0.545 and the relative viability ([2]; first compound 6.325 µM) was 0.225. For the same compound, the relative viability ([2]; first compound 20 µM) was 0.295, the relative viability ([3]; first compound 0.2 µM) was 0.8 and the relative viability ([3]; first compound 0.6325 µM) was 0.847. It also gave a relative viability ([3]; first compound 2 µM) of 0.875, a relative viability ([3]; first compound 6.325 µM) of 0.661 and a relative viability ([3]; first compound 20 µM) of 0.451. The relative viability ([4]; first compound 0.2 µM) was 0.499, the relative viability ([4]; first compound 0.6325 µM) was 0.385 and the relative viability ([4]; first compound 2 µM) was 0.34. For the same compound, the relative viability ([4]; first compound 6.325 µM) was 0.277, the relative viability ([4]; first compound 20 µM) was 0.21 and the relative viability ([5]; first compound 0.2 µM) was 0.657. It also gave a relative viability ([5]; first compound 0.6325 µM) of 0.677, a relative viability ([5]; first compound 2 µM) of 0.596 and a relative viability ([5]; first compound 6.325 µM) of 0.379. It also gave a relative viability ([5]; first compound 20 µM) of 0.242, a relative viability ([6]; first compound 0.2 µM) of 0.818 and a relative viability ([6]; first compound 0.6325 µM) of 0.988. It also gave a relative viability ([6]; first compound 2 µM) of 0.554, a relative viability ([6]; first compound 6.325 µM) of 0.688 and a relative viability ([6]; first compound 20 µM) of 0.699. The relative viability ([7]; first compound 0.2 µM) was 0.911, the relative viability ([7]; first compound 0.6325 µM) was 0.925 and the relative viability ([7]; first compound 2 µM) was 0.901. For the same compound, the relative viability ([7]; first compound 6.325 µM) was 0.666, the relative viability ([7]; first compound 20 µM) was 0.278 and the relative viability ([8]; first compound 0.2 µM) was 1.08. The relative viability ([8]; first compound 0.6325 µM) was 1.22, the relative viability ([8]; first compound 2 µM) was 0.846 and the relative viability ([8]; first compound 6.325 µM) was 0.286. For the same compound, the relative viability ([8]; first compound 20 µM) was 0.226, the relative viability ([9]; first compound 0.2 µM) was 1.05 and the relative viability ([9]; first compound 0.6325 µM) was 1.17. For the same compound, the relative viability ([9]; first compound 2 µM) was 1.02, the relative viability ([9]; first compound 6.325 µM) was 0.719 and the relative viability ([9]; first compound 20 µM) was 0.354. It also gave a relative viability ([10]; first compound 0.2 µM) of 0.887, a relative viability ([10]; first compound 0.6325 µM) of 0.875 and a relative viability ([10]; first compound 2 µM) of 0.792. The relative viability ([10]; first compound 6.325 µM) was 0.648, the relative viability ([10]; first compound 20 µM) was 0.219 and the relative viability ([11]; first compound 0.2 µM) was 0.801. The relative viability ([11]; first compound 0.6325 µM) was 0.808, the relative viability ([11]; first compound 2 µM) was 0.86 and the relative viability ([11]; first compound 6.325 µM) was 0.406. The relative viability ([11]; first compound 20 µM) was 0.12, the relative viability ([12]; first compound 0.2 µM) was 0.544 and the relative viability ([12]; first compound 0.6325 µM) was 0.565. It also gave a relative viability ([12]; first compound 2 µM) of 0.649, a relative viability ([12]; first compound 6.325 µM) of 0.349 and a relative viability ([12]; first compound 20 µM) of 0.184. For the same compound, the relative viability ([13]; first compound 0.2 µM) was 0.964, the relative viability ([13]; first compound 0.6325 µM) was 1.1 and the relative viability ([13]; first compound 2 µM) was 1.1. For the same compound, the relative viability ([13]; first compound 6.325 µM) was 1.02, the relative viability ([13]; first compound 20 µM) was 0.732 and the relative viability ([14]; first compound 0.2 µM) was 0.881. The relative viability ([14]; first compound 0.6325 µM) was 0.731, the relative viability ([14]; first compound 2 µM) was 0.862 and the relative viability ([14]; first compound 6.325 µM) was 0.713. It also gave a relative viability ([14]; first compound 20 µM) of 0.214, a relative viability ([15]; first compound 0.2 µM) of 0.831 and a relative viability ([15]; first compound 0.6325 µM) of 1.02. For the same compound, the relative viability ([15]; first compound 2 µM) was 0.762, the relative viability ([15]; first compound 6.325 µM) was 0.808 and the relative viability ([15]; first compound 20 µM) was 0.71. The relative viability ([16]; first compound 0.2 µM) was 0.551, the relative viability ([16]; first compound 0.6325 µM) was 0.598 and the relative viability ([16]; first compound 2 µM) was 0.573. The relative viability ([16]; first compound 6.325 µM) was 0.406, the relative viability ([16]; first compound 20 µM) was 0.111 and the relative viability ([17]; first compound 0.2 µM) was 0.584. It also gave a relative viability ([17]; first compound 0.6325 µM) of 0.548, a relative viability ([17]; first compound 2 µM) of 0.677 and a relative viability ([17]; first compound 6.325 µM) of 0.577. For the same compound, the relative viability ([17]; first compound 20 µM) was 0.4, the relative viability ([18]; first compound 0.2 µM) was 1.11 and the relative viability ([18]; first compound 0.6325 µM) was 1.09. It also gave a relative viability ([18]; first compound 2 µM) of 0.754, a relative viability ([18]; first compound 6.325 µM) of 0.811 and a relative viability ([18]; first compound 20 µM) of 0.323. The relative viability ([19]; first compound 0.2 µM) was 0.787, the relative viability ([19]; first compound 0.6325 µM) was 0.836 and the relative viability ([19]; first compound 2 µM) was 0.708. It also gave a relative viability ([19]; first compound 6.325 µM) of 0.499, a relative viability ([19]; first compound 20 µM) of 0.267 and a relative viability ([20]; first compound 0.2 µM) of 0.234. It also gave a relative viability ([20]; first compound 0.6325 µM) of 0.233, a relative viability ([20]; first compound 6.325 µM) of 0.227 and a relative viability ([20]; first compound 20 µM) of 0.229.

Compound `CN1CCN(CCOc2cc(OC3CCOCC3)c3c(Nc4c(Cl)ccc5c4OCO5)ncnc3c2)CC1` [Saracatinib] + C[C@@H](Oc1cc(-c2cnn(C3CCNCC3)c2)cnc1N)c1c(Cl)ccc(F)c1Cl [Crizotinib] (partner 1 µM) has a relative viability ([1]; first compound 0.02 µM) of 0.95, a relative viability ([1]; first compound 0.2 µM) of 0.601 and a relative viability ([1]; first compound 0.6325 µM) of 0.798. The relative viability ([1]; first compound 2 µM) was 0.646, the relative viability ([2]; first compound 0.02 µM) was 0.54 and the relative viability ([2]; first compound 0.2 µM) was 0.611. For the same compound, the relative viability ([2]; first compound 0.6325 µM) was 0.376, the relative viability ([2]; first compound 2 µM) was 0.251 and the relative viability ([3]; first compound 0.02 µM) was 0.744. The relative viability ([3]; first compound 0.2 µM) was 0.801, the relative viability ([3]; first compound 0.6325 µM) was 0.903 and the relative viability ([3]; first compound 2 µM) was 0.591. For the same compound, the relative viability ([4]; first compound 0.02 µM) was 0.434, the relative viability ([4]; first compound 0.2 µM) was 0.41 and the relative viability ([4]; first compound 0.6325 µM) was 0.513. It also gave a relative viability ([4]; first compound 2 µM) of 0.371, a relative viability ([5]; first compound 0.02 µM) of 0.751 and a relative viability ([5]; first compound 0.6325 µM) of 0.656. It also gave a relative viability ([5]; first compound 2 µM) of 0.507, a relative viability ([6]; first compound 0.02 µM) of 0.818 and a relative viability ([6]; first compound 0.2 µM) of 0.779. The relative viability ([6]; first compound 0.6325 µM) was 0.608, the relative viability ([6]; first compound 2 µM) was 0.582 and the relative viability ([7]; first compound 0.02 µM) was 0.96. The relative viability ([7]; first compound 0.2 µM) was 0.826, the relative viability ([7]; first compound 0.6325 µM) was 0.779 and the relative viability ([7]; first compound 2 µM) was 0.729. For the same compound, the relative viability ([8]; first compound 0.02 µM) was 1.1, the relative viability ([8]; first compound 0.2 µM) was 1.06 and the relative viability ([8]; first compound 0.6325 µM) was 0.918. It also gave a relative viability ([8]; first compound 2 µM) of 0.705, a relative viability ([9]; first compound 0.02 µM) of 1.11 and a relative viability ([9]; first compound 0.2 µM) of 0.707. It also gave a relative viability ([9]; first compound 0.6325 µM) of 0.704, a relative viability ([9]; first compound 2 µM) of 0.411 and a relative viability ([10]; first compound 0.02 µM) of 0.913. The relative viability ([10]; first compound 0.2 µM) was 0.846, the relative viability ([10]; first compound 0.6325 µM) was 0.916 and the relative viability ([10]; first compound 2 µM) was 0.875. It also gave a relative viability ([11]; first compound 0.02 µM) of 0.817, a relative viability ([11]; first compound 0.2 µM) of 0.693 and a relative viability ([11]; first compound 0.6325 µM) of 0.805. The relative viability ([11]; first compound 2 µM) was 0.765, the relative viability ([12]; first compound 0.02 µM) was 0.571 and the relative viability ([12]; first compound 0.6325 µM) was 0.677. The relative viability ([12]; first compound 2 µM) was 0.386, the relative viability ([13]; first compound 0.02 µM) was 1.03 and the relative viability ([13]; first compound 0.2 µM) was 0.756. The relative viability ([13]; first compound 0.6325 µM) was 0.896, the relative viability ([13]; first compound 2 µM) was 0.691 and the relative viability ([14]; first compound 0.02 µM) was 1.04. For the same compound, the relative viability ([14]; first compound 0.2 µM) was 0.604, the relative viability ([14]; first compound 0.6325 µM) was 0.837 and the relative viability ([14]; first compound 2 µM) was 0.926. For the same compound, the relative viability ([15]; first compound 0.02 µM) was 0.971, the relative viability ([15]; first compound 0.2 µM) was 0.831 and the relative viability ([15]; first compound 0.6325 µM) was 0.916. For the same compound, the relative viability ([15]; first compound 2 µM) was 0.6, the relative viability ([16]; first compound 0.02 µM) was 0.769 and the relative viability ([16]; first compound 0.2 µM) was 0.428. For the same compound, the relative viability ([16]; first compound 0.6325 µM) was 0.391, the relative viability ([16]; first compound 2 µM) was 0.356 and the relative viability ([17]; first compound 0.02 µM) was 0.732. The relative viability ([17]; first compound 0.2 µM) was 0.686, the relative viability ([17]; first compound 0.6325 µM) was 1.03 and the relative viability ([17]; first compound 2 µM) was 0.486. The relative viability ([18]; first compound 0.02 µM) was 1.11, the relative viability ([18]; first compound 0.6325 µM) was 1.09 and the relative viability ([18]; first compound 2 µM) was 0.67. It also gave a relative viability ([19]; first compound 0.02 µM) of 0.81, a relative viability ([19]; first compound 0.2 µM) of 0.833 and a relative viability ([19]; first compound 0.6325 µM) of 0.945. It also gave a relative viability ([19]; first compound 2 µM) of 0.778, a relative viability ([20]; first compound 0.02 µM) of 0.253 and a relative viability ([20]; first compound 0.2 µM) of 0.225. The relative viability ([20]; first compound 0.6325 µM) was 0.196 and the relative viability ([20]; first compound 2 µM) was 0.201.
